Assays:
rNav1.8 = target: T1, rNav1.8 (Rattus norvegicus, UniProt Q62968); assay: Patch clamp, intracellular KIFMK: block of current density (Fig 6E,F); format: cell-based; conditions: Fig 6F
T1 construct: expressed in transfected cells; host or cells: ND7/23

hNav1.7 = target: T2, hNav1.7 (Homo sapiens, UniProt Q15858); format: cell-based
T2 construct: expressed in transfected cells; host or cells: HEK293T
T2 sequence (Q15858 whole entry): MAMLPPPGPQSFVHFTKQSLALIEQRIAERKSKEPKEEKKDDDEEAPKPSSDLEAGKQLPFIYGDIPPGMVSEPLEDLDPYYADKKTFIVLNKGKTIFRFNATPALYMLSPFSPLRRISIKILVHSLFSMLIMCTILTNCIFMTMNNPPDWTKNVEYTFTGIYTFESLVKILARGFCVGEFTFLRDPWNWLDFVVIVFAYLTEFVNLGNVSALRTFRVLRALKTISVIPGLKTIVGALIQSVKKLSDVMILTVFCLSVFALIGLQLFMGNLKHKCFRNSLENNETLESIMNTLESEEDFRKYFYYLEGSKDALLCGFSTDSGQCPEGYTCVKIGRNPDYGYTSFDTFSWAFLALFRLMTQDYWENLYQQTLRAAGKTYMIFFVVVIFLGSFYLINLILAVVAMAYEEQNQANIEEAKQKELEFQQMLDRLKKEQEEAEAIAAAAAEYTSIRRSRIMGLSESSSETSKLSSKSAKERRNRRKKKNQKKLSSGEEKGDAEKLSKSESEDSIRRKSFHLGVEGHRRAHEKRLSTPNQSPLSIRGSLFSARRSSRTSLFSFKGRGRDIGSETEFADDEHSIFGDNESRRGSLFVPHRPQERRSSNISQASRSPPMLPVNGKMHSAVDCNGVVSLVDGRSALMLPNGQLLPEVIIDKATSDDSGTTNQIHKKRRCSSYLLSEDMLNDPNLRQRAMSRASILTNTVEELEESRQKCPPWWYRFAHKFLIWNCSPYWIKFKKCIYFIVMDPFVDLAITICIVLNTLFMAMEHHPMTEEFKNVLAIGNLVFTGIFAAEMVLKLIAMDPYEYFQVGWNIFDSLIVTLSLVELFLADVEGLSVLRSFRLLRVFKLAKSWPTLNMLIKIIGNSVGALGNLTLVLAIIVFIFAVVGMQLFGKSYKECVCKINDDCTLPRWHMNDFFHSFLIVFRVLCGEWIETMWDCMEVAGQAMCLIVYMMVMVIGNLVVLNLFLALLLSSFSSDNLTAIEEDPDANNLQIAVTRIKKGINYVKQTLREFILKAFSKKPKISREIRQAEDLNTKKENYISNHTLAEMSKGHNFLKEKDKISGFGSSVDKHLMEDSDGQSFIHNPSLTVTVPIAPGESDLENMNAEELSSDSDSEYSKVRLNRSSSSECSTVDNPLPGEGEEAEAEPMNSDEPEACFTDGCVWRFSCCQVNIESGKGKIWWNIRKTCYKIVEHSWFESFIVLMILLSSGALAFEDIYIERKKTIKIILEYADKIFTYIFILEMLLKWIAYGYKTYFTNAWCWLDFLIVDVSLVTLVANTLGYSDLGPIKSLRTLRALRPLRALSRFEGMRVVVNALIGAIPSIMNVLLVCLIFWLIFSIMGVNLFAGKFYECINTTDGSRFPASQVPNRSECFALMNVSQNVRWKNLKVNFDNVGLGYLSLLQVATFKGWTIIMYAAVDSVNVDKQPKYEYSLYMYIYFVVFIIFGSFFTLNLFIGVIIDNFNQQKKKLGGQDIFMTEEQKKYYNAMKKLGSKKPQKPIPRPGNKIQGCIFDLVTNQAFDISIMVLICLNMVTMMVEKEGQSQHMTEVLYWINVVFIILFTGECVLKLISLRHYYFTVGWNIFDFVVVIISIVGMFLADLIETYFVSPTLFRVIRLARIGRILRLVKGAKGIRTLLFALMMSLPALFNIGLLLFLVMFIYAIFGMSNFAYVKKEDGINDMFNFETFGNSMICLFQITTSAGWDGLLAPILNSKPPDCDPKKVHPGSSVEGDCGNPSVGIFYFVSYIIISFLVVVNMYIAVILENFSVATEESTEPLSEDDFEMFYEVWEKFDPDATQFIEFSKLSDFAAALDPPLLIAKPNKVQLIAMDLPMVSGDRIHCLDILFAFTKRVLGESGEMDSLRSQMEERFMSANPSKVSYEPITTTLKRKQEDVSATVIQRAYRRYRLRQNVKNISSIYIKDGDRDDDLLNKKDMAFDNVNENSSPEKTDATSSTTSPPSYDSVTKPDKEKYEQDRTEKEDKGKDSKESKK
T2 sequence (Q07699 19-218, further chain): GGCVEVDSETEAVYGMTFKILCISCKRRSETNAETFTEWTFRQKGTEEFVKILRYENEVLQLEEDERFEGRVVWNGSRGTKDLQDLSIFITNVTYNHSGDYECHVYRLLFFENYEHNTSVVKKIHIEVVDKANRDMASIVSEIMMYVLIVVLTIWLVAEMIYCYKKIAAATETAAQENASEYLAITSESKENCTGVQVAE
T2 sequence (O60939 30-215, further chain): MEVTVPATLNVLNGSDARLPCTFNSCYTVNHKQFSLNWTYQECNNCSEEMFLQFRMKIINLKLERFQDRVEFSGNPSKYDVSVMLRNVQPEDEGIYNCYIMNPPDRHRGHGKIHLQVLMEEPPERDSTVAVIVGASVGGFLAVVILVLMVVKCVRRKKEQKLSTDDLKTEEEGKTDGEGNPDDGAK

T1 sequence (Q62968 whole entry): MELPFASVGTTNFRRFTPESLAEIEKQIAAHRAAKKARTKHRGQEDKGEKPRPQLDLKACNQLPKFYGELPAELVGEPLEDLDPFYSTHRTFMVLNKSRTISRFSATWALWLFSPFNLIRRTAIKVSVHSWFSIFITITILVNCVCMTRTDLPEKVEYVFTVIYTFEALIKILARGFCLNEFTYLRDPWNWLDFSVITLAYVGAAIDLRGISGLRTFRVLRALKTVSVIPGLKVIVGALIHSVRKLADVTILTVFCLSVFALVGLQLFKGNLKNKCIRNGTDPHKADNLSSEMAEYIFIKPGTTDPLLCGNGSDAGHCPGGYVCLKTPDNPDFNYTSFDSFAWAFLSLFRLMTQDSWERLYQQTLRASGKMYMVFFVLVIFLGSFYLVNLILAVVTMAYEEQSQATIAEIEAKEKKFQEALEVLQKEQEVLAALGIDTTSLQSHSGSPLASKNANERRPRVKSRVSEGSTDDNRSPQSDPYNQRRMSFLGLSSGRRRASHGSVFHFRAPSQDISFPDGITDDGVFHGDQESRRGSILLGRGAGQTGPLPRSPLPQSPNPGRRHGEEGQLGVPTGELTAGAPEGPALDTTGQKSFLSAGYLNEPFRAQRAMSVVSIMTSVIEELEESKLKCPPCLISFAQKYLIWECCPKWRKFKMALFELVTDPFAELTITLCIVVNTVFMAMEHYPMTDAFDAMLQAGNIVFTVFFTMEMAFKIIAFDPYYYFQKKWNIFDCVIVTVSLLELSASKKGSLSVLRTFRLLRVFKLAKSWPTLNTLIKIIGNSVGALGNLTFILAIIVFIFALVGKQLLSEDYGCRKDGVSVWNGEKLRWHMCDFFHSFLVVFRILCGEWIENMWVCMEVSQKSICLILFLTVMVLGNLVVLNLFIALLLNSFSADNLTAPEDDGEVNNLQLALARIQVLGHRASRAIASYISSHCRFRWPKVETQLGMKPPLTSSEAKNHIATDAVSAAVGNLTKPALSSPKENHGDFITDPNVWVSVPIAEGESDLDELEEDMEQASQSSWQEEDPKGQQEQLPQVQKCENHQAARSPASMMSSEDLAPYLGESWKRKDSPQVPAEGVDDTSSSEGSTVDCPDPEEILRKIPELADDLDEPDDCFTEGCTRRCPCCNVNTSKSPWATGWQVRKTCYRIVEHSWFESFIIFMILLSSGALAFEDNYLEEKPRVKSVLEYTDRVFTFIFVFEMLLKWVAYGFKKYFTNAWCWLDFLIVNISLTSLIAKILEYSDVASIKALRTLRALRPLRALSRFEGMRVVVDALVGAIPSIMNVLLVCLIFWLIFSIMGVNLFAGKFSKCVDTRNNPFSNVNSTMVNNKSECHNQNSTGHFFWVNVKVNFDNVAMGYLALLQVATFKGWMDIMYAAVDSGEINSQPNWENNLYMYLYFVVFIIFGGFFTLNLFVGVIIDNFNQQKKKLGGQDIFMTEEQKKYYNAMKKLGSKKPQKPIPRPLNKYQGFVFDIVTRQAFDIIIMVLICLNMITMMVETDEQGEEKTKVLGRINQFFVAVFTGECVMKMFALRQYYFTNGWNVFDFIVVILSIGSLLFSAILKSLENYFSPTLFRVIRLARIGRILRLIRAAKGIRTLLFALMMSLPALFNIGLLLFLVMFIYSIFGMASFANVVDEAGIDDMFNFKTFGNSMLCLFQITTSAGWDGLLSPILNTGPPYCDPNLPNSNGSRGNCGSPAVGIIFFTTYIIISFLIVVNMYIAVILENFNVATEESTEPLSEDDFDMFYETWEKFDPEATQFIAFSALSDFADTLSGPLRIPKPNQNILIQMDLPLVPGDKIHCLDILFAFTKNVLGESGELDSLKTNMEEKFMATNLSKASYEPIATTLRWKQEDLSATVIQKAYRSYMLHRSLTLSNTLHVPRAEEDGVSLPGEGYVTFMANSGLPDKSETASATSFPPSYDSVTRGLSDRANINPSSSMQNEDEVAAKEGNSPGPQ

| Compound | IC50 for rNav1.4 and hNav1.5 relative to that for rNav1.8 (rNav1.8) | inhibition of rpTx1-evoked persistent currents (hNav1.7) |
| --- | --- | --- |
| CC[C@H](C)[C@H](NC(=O)[C@@H](N)CCCCN)C(=O)N[C@@H](Cc1ccccc1)C(=O)N[C@@H](CCSC)C(=O)N[C@@H](CCCCN)C(=O)O [KIFMK] | two time smaller |  |
| NC1=N[C@H](O)[C@H]2[C@H]3O[C@]4(O)O[C@@H]([C@@H](O)[C@@]2(N1)[C@@H]4O)[C@]3(O)CO [TTX, tetrodotoxin] |  | completely inhibited |
